Results taken from patent USRE38332E1, “Selected soluble esters of hydroxyl-containing indolocarbazoles” (Cephalon, Inc., priority 1995, dated 2003).

Experiments:
[1] = In vitro metabolism of I-5 esters in human liver S-9 fraction; format: in vitro ADME; conditions: 2 mg/mL protein
Procedure: (§1) Rat and human liver S-9 fractions (a mixture of cytosol and microsomes) were frozen immediately after preparation. Each aliquot was thawed once for use in incubations. Stock solutions of the indolocarbazole esters were prepared in DMSO. These were used to prepare standard curves in heat inactivated S-9 fraction that had been diluted with 0.2M phosphate buffer, pH 7.4 to yield a 2 mg/mL protein concentration. Heat inactivated S-9 was divided into 500 μL aliquots, mixed with an aliquot of the internal standard, and spiked with the respective stock ester solutions to prepare the standard curve. Incubations containing liver S-9 fraction were prepared by diluting the S-9 fraction in 0.2M phosphate buffer, pH 7.4 to yield a 2 mg/mL protein concentration. Samples (500 μL) were placed in screw-cap vials, mixed with internal standard, and spiked with stock solutions of the respective esters to yield a nominal concentration of 5000 ng/mL.
Incubations were then performed at 37° C. in a shaking water bath for 0, 0.5, 1, 2, 5, 10, 15, 30, and 60 minutes and quenched by addition of 5 mL methylene chloride. All tubes (standards and experimentals) were extracted for 15 minutes by shaking, and centrifuged. […] Fifty μL of the reconstituted extracts were analyzed by reverse-phase HPLC with detection at 290 nm. […]

[2] = test system: ChAT activity in spinal cord cultures; experiment: Effect of indolocarbazole esters on ChAT activity in dissociated spinal cord cultures; format: cell-based, rat
Procedure: The effect of indolocarbazole esters of the invention on ChAT activity was assayed in dissociated spinal cord cultures prepared from fetal rats. ChAT is the enzyme that catalyzes the synthesis of the neurotransmitter acetylcholine, and it is a specific biochemical marker for cholinergic neurons. In the spinal cord, the large majority of cholinergic neurons are motor neurons. Assay of this enzyme may thus be used as an indication of the effects of a factor (or factors) on the survival and/or differentiation of cholinergic neurons and/or regulation of this enzyme. The procedure used for the assay is that described in Example 6 of WO 94/02488. Fourteen esters were tested in the spinal cord ChAT assay to determine their relative efficacy, and the results are summarized in Table 4.

[3] = In vivo metabolism and intravenous pharmacokinetics of I-5 esters in male Sprague-Dawley rats; conditions: intravenous, rat; for hydrolysis to indolocarbazole I-5 in vivo: 5 mg/kg dose of I-5 equivalent
Procedure: Groups of 12 male Sprague-Dawley rats were administered either DMAB dihydrochloride or β-alaninate hydrochloride through the lateral tail vein in a vehicle consisting of 0.05M acetate buffer, pH 5.0 containing 20% polyethylene glycol. The volume of the dosing solution was adjusted on the basis of body weight to deliver a 5 mg/kg dose of indolocarbazole I-5 after complete hydrolysis of the respective indolocarbazole ester. At 5, 30, 60, and 120 minutes after injection, the animals were anesthetized with carbon dioxide and a sample of whole blood was obtained by cardiac puncture. The blood was placed into a 10 mL heparinized tube containing 100 μL 50% potassium fluoride (an inhibitor of plasma esterases). Following centrifugation, the resulting plasma was frozen in a dry-ice/isopropanol bath and kept frozen at −90° C. prior to analysis.
(§2) For analysis, the samples were thawed, internal standard was added, and the mixture was extracted with 5 mL methylene chloride. Standards in rat plasma were prepared as described previously. All tubes (standards and experimentals) were extracted for 15 minutes by shaking, and centrifuged. The methylene chloride layer was removed, dried under a stream of nitrogen, and reconstituted in DMSO. Fifty μL of the reconstituted extracts were analyzed by reverse-phase HPLC with detection at 290 nm. The mobile phase and gradient conditions are the same as those given in Example 17.

[4] = Solubility of the esters at 1 mg/ml in water and buffer solutions; conditions: for solubility in Tris buffer: 10 mM Tris buffer pH 9; for solubility in acetate buffer: 10 mM acetate buffer pH 4; for solubility in phosphate buffer: 10 mM phosphate buffer pH 7; for solubility in water: water (Solution 1)
Procedure: Indolocarbazole esters were dissolved in water, dimethylsulfoxide (DMSO) and the following buffer solutions to determine solubility and to observe conversion to indolocarbazole I-5. Samples were analyzed by HPLC using UV detection at 290 nm.
Solution 2 was a 10 mM acetate buffer at pH 4 which was prepared by weighing 0.68 g of sodium acetate 3H2O into 500 ml of water and adjusting the pH with acetic acid.
Solution 3 was a 10 mM phosphate buffer, pH 7, which was prepared by weighing 0.30 g of monobasic sodium phosphate and 0.36 g of dibasic sodium phosphate into 500 ml of water, stirring until completely dissolved, and adjusting the pH with hydrochloric acid.
Solution 4 was a 10 mM Tris buffer, pH 9, which was prepared by weighing 0.79 g of Tris (tris(hydroxymethyl)aminomethane hydrochloride) into 500 ml of water, stirring until completely dissolved, and adjusting the pH with sodium hydroxide.
Sample solutions were prepared by weighing 0.5-1 mg of the indolocarbazole ester into an amber 1.5 ml autosampler vial, to which the appropriate quantity of one of the buffer solutions was added, in order to achieve a final concentration of 1 mg/ml. The sample solutions were vortexed and sonicated for 10 minutes. Fifty μl aliquots were placed into 1.5 ml amber autosampler vials. The reaction was quenched at a selected time interval by addition of 450 μl DMSO to the vial.

[5] = In vitro metabolism of I-5 esters in rat liver S-9 fraction; format: in vitro ADME; conditions: 2 mg/mL protein, 5000 ng/mL
Procedure: as §1
Incubations were then performed at 37° C. in a shaking water bath for 0, 0.5, 1, 2, 5, 10, 15, 30, and 60 minutes and quenched by addition of 5 mL methylene chloride. All tubes (standards and experimentals) were extracted for 15 minutes by shaking, and centrifuged. The methylene chloride layer was removed, dried under a stream of nitrogen, and reconstituted in DMSO. Fifty μL of the reconstituted extracts were analyzed by reverse-phase HPLC with detection at 290 nm. The mobile phase and gradient conditions are given below: […]

[6] = test system: Dunning R-3327 AT-2 rat prostate tumor; experiment: Anti-tumor efficacy against the androgen-independent AT-2 rat prostate tumor; format: in vivo; conditions: for Tumor volume Day 0: Day 0, daily sc dosing; for Tumor volume Day 0 / Tumor volume Day 3 / Tumor volume Day 6 / Tumor volume Day 9 / Tumor volume Day 13: Mean ± SE; for Tumor volume Day 3: Day 3, daily sc dosing; for Tumor volume Day 6: Day 6, daily sc dosing; for Tumor volume Day 9: Day 9, daily sc dosing; for Tumor volume Day 13: Day 13, daily sc dosing; for inhibiting the growth of AT-2 tumors: adult male Copenhagen rats; for inhibition of tumor growth: by Day 13 of dosing
Procedure: Rat prostate cancer Dunning R-3327 AT-2.1 cells (Isaacs et al., Prostate 9:261-281, 1986) were grown at 37 C. in a humidified incubator, with a 95% air/5% CO2 atmosphere, in RPMI-1640 medium containing 10% fetal calf serum, 250 nM dexamethasone, 2 mM glutamine, penicillin (100 I.U./mL), and streptomycin (100 μg/mL), and 1 mM sodium pyruvate. The cells were determined to be free of mycoplasma and rodent viruses (MAP testing) by Microbiological Associates. Exponentially growing cells were harvested using 6 mL of warm trypsin. The total volume was brought up to 10 mL with media to neutralize trypsin and cells were counted. The cells were then collected by brief centrifugation, and cell pellet was resuspended in Hanks' Balanced Salt Solution to achieve the final concentration of 1×10^7 live cells/mL.
Male inbred Copenhagen rats (200-225 g) obtained from Harlan Sprague-Dawley, Indianapolis, Ind., were maintained three rats/cage and given a commercial diet (Purina Formulab 5001) and water ad libitum. Animals were housed under humidity- and temperature-controlled conditions and light/dark cycle was set at 12-hour intervals. Rats were quarantined for one week before experimental manipulation. Tumor cell implantation and growth
Fifty adult male Copenhagen rats were inoculated with live AT-2 cells (1×10^6 cells/rat) into their right flank. Seven days later, rats bearing AT-2 tumors (approximately 0.5‥0.7 cm^3 in volume) were divided into five groups of ten animals each. A description of the experimental groups is given below. Dosing volumes of either I-5 or its lysyl-β-alaninate ester (1 mL/kg) were based on the average weight of the animals in each dosing group and were adjusted as necessary twice a week. Tumors were measured in anesthetized animals (isofluorane vapor for approximately 1-2 minutes) every 3-4 days using a vernier caliper. Tumor volume was calculated using the formula:
V(cm)=0.5236×length(cm)×width(cm)[(length(cm)+width(cm))/2].
Indolocarbazole I-5 was dissolved in vehicle defined below:
(I-5)-Lysyl-β-alaninate was dissolved in 50 mM sodium acetate buffer, pH 5.5.

[7] = Stability of the esters in buffered solution (conversion to indolocarbazole I-5, HPLC); format: physicochemical; conditions: buffer solutions, 24 hours
Procedure: Solution 5 was a DMSO control.
HPLC conditions were as follows:
The pH of the compounds in water varied from 2 to 5 while the buffers remained approximately the same at 3.6, 6.7 and 7.8 for the 10 mM acetate, phosphate and Tris, respectively.
Acetate buffers at pH 2, 3, 4, 5 and 6 were prepared as follows. A total of 6.8 g of sodium acetate trihydrate was added to one liter of water, and the mixture was stirred until the solid was completely dissolved. One hundred ml aliquots were placed into 150 ml Erlenmeyer flasks, and the pH values were adjusted with HCl to pH 2, 3, 4, 5, and 6. A concentration of 50 mM was chosen to reduce the effects of compound addition. The indolocarbazole ester of Example 14 was investigated only with the acetate buffers. The rates of conversion of I-5 (the appearance of indolocarbazole I-5) as a function of pH are shown in FIGS. 3, 4, and 5 for the indolocarbazole esters of Examples 14, 8, and 11, respectively.

[8] = Route-to-route comparison of indolocarbazole I-5 formation from lysyl-β-alaninate in rats; format: in vivo, rat; conditions: for plasma levels of indolocarbazole I-5: intravenous 8.01 mg/kg
Procedure: Groups of 12 male Sprague-Dawley rats were administered lysyl-β-alaninate dihydrochloride via intravenous or subcutaneous injection, as well as by oral gavage at a dose of 8.01 mg/kg. This dose was designed to deliver a 5 mg/kg equivalent dose of indolocarbazole I-5 following complete hydrolysis of the indolocarbazole ester. The volume of the dosing solution was adjusted on the basis of body weight. At 5, 30, 60, and 120 minutes after intravenous injection and 30, 60, 120, and 240 minutes after either subcutaneous injection or oral gavage, the animals were anesthetized with carbon dioxide and a sample of whole blood was obtained by cardiac puncture. The blood was placed into a heparinized container containing 100 μL 50% potassium fluoride (an inhibitor of plasma esterases) and 10 μL phenylmethylsulfonylfluoride (an inhibitor of plasma amidase). Following centrifugation, the resulting plasma was frozen in a dry-ice/isopropanol bath and kept frozen at −90° C. prior to analysis.
as §2, with “extracts was” for “extracts were”

[9] = test system: Dunning R-3327 AT-2 rat prostate tumor; conditions: see WO 94/27982; cited from earlier work

| rates of hydrolysis [1] | hydrolysis to indolocarbazole I-5 in vivo [3] | time ester could be detected in plasma following administration [3] | solubility in Tris buffer [4] | solubility in acetate buffer [4] | solubility in phosphate buffer [4] | solubility in water [4] | hydrolysis of the ester [5] | rate of conversion to indolocarbazole I-5 [7] | SMILES | Spinal Cord ChAT Activity (% of Control) 500 nM [2] | Spinal Cord ChAT Activity (% of Control) 1000 nM [2] | Tumor volume Day 0 [6] | Tumor volume Day 3 [6] | Tumor volume Day 6 [6] | Tumor volume Day 9 [6] | Tumor volume Day 13 [6] | inhibiting the growth of AT-2 tumors [6] | inhibition of tumor growth [6] | further results |
| --- | --- | --- | --- | --- | --- | --- | --- | --- | --- | --- | --- | --- | --- | --- | --- | --- | --- | --- | --- |
| similar | rapidly hydrolyzed | one | not completely soluble | completely soluble | not completely soluble | completely soluble | rate of hydrolysis was markedly reduced |  | COC1(COC(=O)CCN)CC2OC1(C)n1c3ccccc3c3c4c(c5c6ccccc6n2c5c31)C(=O)NC4.Cl (stereo not drawn) [Example 11, (I-5)-β-Alaninate Hydrochloride] | 138 % of Control | 149 % of Control |  |  |  |  |  |  |  |  |
|  |  |  |  |  |  |  |  |  | COC1(CO)CC2OC1(C)n1c3ccccc3c3c4c(c5c6ccccc6n2c5c31)C(=O)NC4 (stereo not shown) [Example I-5, reference compound] |  |  | 0.7 ± 0.1 cm^3 | 1.6 ± 0.2 cm^3 | 2.1 ± 0.1 cm^3 | 5.4 ± 0.7 cm^3 | 11.6 ± 1.8 cm^3 | effective | 53% | growth inhibition of Dunning R-3327 AT-2 rat prostate tumor in vivo [9]: growth inhibitory properties |
| similar | rapidly hydrolyzed | two | not completely soluble | completely soluble | not completely soluble | completely soluble | rapid hydrolysis | low rate of conversion | COC1(COC(=O)CC(C)N(C)C)CC2OC1(C)n1c3ccccc3c3c4c(c5c6ccccc6n2c5c31)C(=O)NC4.Cl (stereo not shown) [Example 8, (I-5)-Dimethylaminobutyrate Hydrochloride] | inactive | 138 % of Control |  |  |  |  |  |  |  |  |

| SMILES | rates of hydrolysis [1] | hydrolysis to indolocarbazole I-5 in vivo [3] | time ester could be detected in plasma following administration [3] | solubility in Tris buffer [4] | solubility in acetate buffer [4] | solubility in phosphate buffer [4] | solubility in water [4] | hydrolysis of the ester [5] | rate of conversion to indolocarbazole I-5 [7] | Spinal Cord ChAT Activity (% of Control) 500 nM [2] | Spinal Cord ChAT Activity (% of Control) 1000 nM [2] | Tumor volume Day 0 [6] | Tumor volume Day 3 [6] | Tumor volume Day 6 [6] | Tumor volume Day 9 [6] | Tumor volume Day 13 [6] | inhibiting the growth of AT-2 tumors [6] | inhibition of tumor growth [6] | further results |
| --- | --- | --- | --- | --- | --- | --- | --- | --- | --- | --- | --- | --- | --- | --- | --- | --- | --- | --- | --- |
| COC1(COC(=O)CCNC(=O)C(N)CCCCN)CC2OC1(C)n1c3ccccc3c3c4c(c5c6ccccc6n2c5c31)C(=O)NC4.Cl.Cl (stereo not drawn) [Example 14, (I-5)-Lysyl-β-Alaninate Dihydrochloride] |  |  |  | completely soluble | completely soluble | completely soluble | completely soluble | initial hydrolysis of the amide bond between the two amino acids appears to be the first metabolic event followed by hydrolysis of the ester linkage | low rate of conversion | 121 % of Control | 147 % of Control | 0.6 ± 0.1 cm^3 | 1.5 ± 0.2 cm^3 | 2.1 ± 0.2 cm^3 | 4.8 ± 0.6 cm^3 | 8.3 ± 0.5 cm^3 | effective | 72% | plasma levels of indolocarbazole I-5 ([8]; 5 minutes after dosing): approximately 600 ng/mL; plasma levels of indolocarbazole I-5 ([8]; 2 hours after dosing): approximately 80 ng/mL; plasma levels of I-5 ([8]; oral dose 8.01 mg/kg, limit of quantitation): < 50 ng/mL; conversion to I-5 in vivo ([8]; rat): rapidly converted; plasma levels of I-5 ([8]; subcutaneous 8.01 mg/kg, all time points examined): approximately 70 ng/mL |
